# Test results published in patent US8420820B2, “Pyrrolopyridinylpyrimidin-2-ylamine derivatives” (Merck Patent GmbH, priority 2008, dated 2013).
# Tests used:
# A2780 (ovary) = assay: Tumour cell proliferation/vitality assay (Alamar Blue); type: cell-based; conditions: Homo sapiens, 96 h, A2780 cells, 4 days of cultivation with test substance
# Procedure: In the present experiment description, the inhibition of tumour cell proliferation/tumour cell vitality by active ingredients is described.
# The cells are sown in a suitable cell density in microtitre plates (96-well format) and the test substances are added in the form of a concentration series. After four further days of cultivation in serum-containing medium, the tumour cell proliferation/tumour cell vitality can be determined by means of an Alamar Blue test system.
# The cells are cultivated in medium. At intervals of several days, the cells are detached from the culture dishes with the aid of trypsin solution and sown in suitable dilution in fresh medium. The cells are cultivated at 37° Celsius and 10% CO2.
# A defined number of cells (for example 2000 cells) per culture/well in a volume of 180 μl of culture medium are sown in microtitre plates (96 well cell-culture plates) using a multichannel pipette. The cells are subsequently cultivated in a CO2 incubator (37° C. and 10% CO2).
# The test substances are dissolved, for example, in DMSO and subsequently employed in corresponding concentration (if desired in a dilution series) in the cell culture medium. The dilution steps can be adapted depending on the efficiency of the active ingredients and the desired spread of the concentrations. Cell culture medium is added to the test substances in corresponding concentrations. The addition of the test substances to the cells can take place on the same day as the sowing of the cells. To this end, in each case 20 μl of substance solution from the predilution plate are added to the cultures/wells. The cells are cultivated for a further 4 days at 37° Celsius and 10% CO2.
# In each case, 20 μl of Alamar Blue reagent are added per well, and the microtitre plates are incubated, for example, for a further seven hours in a CO2 incubator (at 37° C. and 10% CO2). The plates are measured in a reader with a fluorescence filter at a wavelength of 540 nm. The plates can be shaken gently immediately before the measurement.
# The absorbance value of the medium control (no cells and test substances used) is subtracted from all other absorbance values. The controls (cells without test substance) are set equal to 100 percent, and all other absorbance values are set in relation thereto (for example in % of control):
# IC50 values (50% inhibition) are determined with the aid of statistics programs, such as, for example, RS1.
# PDK1 = target: T1, PDK1 (Homo sapiens, UniProt O15530); assay: Test for the inhibition of PDK1 (flashplate, 33P-ATP); type: biochemical; conditions: His6-PDK1 3.4 nM, 4 μM ATP, 30° C., 60 min
# T1 construct: His6 (N)
# T1 sequence (O15530 51-556): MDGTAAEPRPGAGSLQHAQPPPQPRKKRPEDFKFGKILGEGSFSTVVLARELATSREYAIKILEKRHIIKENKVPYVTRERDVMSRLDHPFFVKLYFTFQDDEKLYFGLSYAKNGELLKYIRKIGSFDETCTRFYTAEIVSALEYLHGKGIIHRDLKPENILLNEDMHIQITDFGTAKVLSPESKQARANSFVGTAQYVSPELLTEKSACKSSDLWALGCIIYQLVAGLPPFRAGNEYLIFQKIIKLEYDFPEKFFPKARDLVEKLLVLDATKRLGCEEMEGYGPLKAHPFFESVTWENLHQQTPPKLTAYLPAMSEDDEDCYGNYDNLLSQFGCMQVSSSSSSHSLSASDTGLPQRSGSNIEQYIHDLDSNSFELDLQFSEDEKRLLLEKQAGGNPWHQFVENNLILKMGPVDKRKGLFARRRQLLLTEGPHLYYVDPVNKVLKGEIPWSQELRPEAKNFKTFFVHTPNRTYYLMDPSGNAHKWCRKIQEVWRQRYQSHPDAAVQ
# In short: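 His6-PDK1(1-50) at 3.4 nM with biotinylated peptide substrate (400 nM) and 4 μM ATP plus 33P-ATP, 60 min at 30° C. Incorporated radioactivity counted; blank from 100 nM staurosporin subtracted. Activity given as % of no-compound control; IC50 from dilution series.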
# [1] = system: PDK1 kinase activity in PC3 cells (phospho-T308-PKB); assay: Cellular testing of PDK1 kinase inhibitors in PC3 cells (Luminex, phospho-T308-PKB); type: cell-based; conditions: Homo sapiens, PC-3, 0.5 h, 30 min with test substance, serum-free, phospho-T308-PKB by Luminex, read-out: IC50 [PC3 P-PKB Thr308]
# In short: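 Serum-starved PC3 cells treated 30 min with compound (7-point dilution); lysates captured on anti-total-PKB Luminex beads, with phospho-T308-PKB detected by antibody. Signals corrected by 10 μM staurosporine blank, expressed as percent of 0.3% DMSO control, giving IC50.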
Compound,IC50 (A2780 (ovary)),IC50 (PDK1),IC50 [1]
"CCc1cc(-c2c[nH]c3ncc(-c4cnn(CC5CCCO5)c4)cc23)nc(N)n1 (stereo not drawn) [Compound A2, 4-ethyl-6-{5-[1-(tetrahydrofuran-2-ylmethyl)-1H-pyrazol-4-yl]-1H-pyrrolo[2,3-b]pyridin-3-yl}-pyrimidin-2-ylamine]",10 to 1000 nM,10 to 1000 nM,10000 to 20000 nM
"CCc1cc(-c2c[nH]c3ncc(-c4cnn(C5CCN(C)CC5)c4)cc23)nc(N)n1 [Compound A5, 4-ethyl-6-{5-[1-(1-methylpiperidin-4-yl)-1H-pyrazol-4-yl]-1H-pyrrolo[2,3-b]pyridin-3-yl}-pyrimidin-2-ylamine]",10 to 1000 nM,10 to 1000 nM,1000 to 10000 nM
"CCc1cc(-c2c[nH]c3ncc(-c4cnn(C5CCNCC5)c4)cc23)nc(N)n1 [Compound A6, 4-ethyl-6-[5-(1-piperidin-4-yl-1H-pyrazol-4-yl)-1H-pyrrolo[2,3-b]pyridin-3-yl]pyrimidin-2-ylamine]",1000 to 10000 nM,10 to 1000 nM,10000 to 20000 nM
"CCc1cc(-c2c[nH]c3ncc(-c4cnn(CCN5CCCC5)c4)cc23)nc(N)n1 [Compound A7, 4-ethyl-6-{5-[1-(2-pyrrolidin-1-ylethyl)-1H-pyrazol-4-yl]-1H-pyrrolo[2,3-b]pyridin-3-yl}pyrimidin-2-ylamine]",10 to 1000 nM,10 to 1000 nM,10000 to 20000 nM
"CCc1cc(-c2c[nH]c3ncc(-c4cnn(CCN5CCOCC5)c4)cc23)nc(N)n1 [Compound A8, 4-ethyl-6-{5-[1-(2-morpholin-4-ylethyl)-1H-pyrazol-4-yl]-1H-pyrrolo[2,3-b]pyridin-3-yl}pyrimidin-2-ylamine]",1000 to 10000 nM,10 to 1000 nM,1000 to 10000 nM
"CCC(O)(c1ccccc1)c1cc(-c2c[nH]c3ncc(-c4cnn(C(C)C)c4)cc23)nc(N)n1 (stereo not drawn) [Compound A59, 1-{2-amino-6-[5-(1-isopropyl-1H-pyrazol-4-yl)-1H-pyrrolo[2,3-b]pyridin-3-yl]pyrimidin-4-yl}-1-phenylpropan-1-ol]",10 to 1000 nM,10 to 1000 nM,10 to 1000 nM
"CCC[C@H](O)c1cc(-c2c[nH]c3ncc(-c4cnn(C(C)C)c4)cc23)nc(N)n1 [Compound A90, (S)-1-{2-Amino-6-[5-(1-isopropyl-1H-pyrazol-4-yl)-1H-pyrrolo[2,3-b]pyridin-3-yl]pyrimidin-4-yl}butan-1-ol]",10 to 1000 nM,10 to 1000 nM,1000 to 10000 nM
"CCC[C@@H](O)c1cc(-c2c[nH]c3ncc(-c4cnn(C(C)C)c4)cc23)nc(N)n1 [Compound A91, (R)-1-{2-Amino-6-[5-(1-isopropyl-1H-pyrazol-4-yl)-1H-pyrrolo[2,3-b]pyridin-3-yl]pyrimidin-4-yl}butan-1-ol]",10 to 1000 nM,10 to 1000 nM,10 to 1000 nM
"CC(C)C(O)c1cc(-c2c[nH]c3ncc(-c4cnn(C(C)C)c4)cc23)nc(N)n1 (stereo not drawn) [Compound A102, 1-{2-Amino-6-[5-(1-isopropyl-1H-pyrazol-4-yl)-1H-pyrrolo[2,3-b]pyridin-3-yl]-pyrimidin-4-yl}-2-methylpropan-1-ol]",1000 to 10000 nM,10 to 1000 nM,1000 to 10000 nM
"CC(C)n1cc(-c2cnc3[nH]cc(-c4cc(C5(O)CCN(CCc6ccc(F)cc6)CC5)nc(N)n4)c3c2)cn1 [Compound A116, 4-{2-Amino-6-[5-(1-isopropyl-1H-pyrazol-4-yl)-1H-pyrrolo[2,3-b]pyridin-3-yl]-pyrimidin-4-yl}-1-[2-(4-fluorophenyl)ethyl]piperidin-4-ol]",–,10 to 1000 nM,10000 to 20000 nM
"CC(C)n1cc(-c2cnc3[nH]cc(-c4cc(C5(O)CCN(C(=O)OCc6ccccc6)CC5)nc(N)n4)c3c2)cn1 [Compound A122, 4-{2-Amino-6-[5-(1-isopropyl-1H-pyrazol-4-yl)-1H-pyrrolo[2,3-b]pyridin-3-yl]-pyrimidin-4-yl}-4-hydroxypiperidine-1-carboxylic acid benzyl ester]",–,10 to 1000 nM,10000 to 20000 nM
"CC(C)n1cc(-c2cnc3[nH]cc(-c4cc([C@@](C)(O)c5ccccc5)nc(N)n4)c3c2)cn1 [Compound A124, (S)-1-{2-Amino-6-[5-(1-isopropyl-1H-pyrazol-4-yl)-1H-pyrrolo[2,3-b]pyridin-3-yl]pyrimidin-4-yl}-1-phenylethanol]",10 to 1000 nM,10 to 1000 nM,10 to 1000 nM
"CC(C)n1cc(-c2cnc3[nH]cc(-c4cc(C5(O)CCNCC5)nc(N)n4)c3c2)cn1 [Compound A125, 4-{2-Amino-6-[5-(1-isopropyl-1H-pyrazol-4-yl)-1H-pyrrolo[2,3-b]pyridin-3-yl]-pyrimidin-4-yl}piperidin-4-ol]",–,1000 to 10000 nM,10000 to 20000 nM
"CCc1cc(-c2c[nH]c3ncc(-c4cnn(CC(=O)N5CCCc6ccccc65)c4)cc23)nc(N)n1 [Compound A128, 2-{4-[3-(2-Amino-6-ethylpyrimidin-4-yl)-1H-pyrrolo[2,3-b]pyridin-5-yl]pyrazol-1-yl}-1-(3,4-dihydro-2H-quinolin-1-yl)ethanone]",–,10 to 1000 nM,1000 to 10000 nM

# The next lines start with the values.
IC50 (A2780 (ovary)),IC50 (PDK1),IC50 [1],Compound
10 to 1000 nM,10 to 1000 nM,10000 to 20000 nM,"CCc1cc(-c2c[nH]c3ncc(-c4cnn(CCNC)c4)cc23)nc(N)n1 [Compound A3, 4-ethyl-6-{5-[1-(2-methylaminoethyl)-1H-pyrazol-4-yl]-1H-pyrrolo[2,3-b]pyridin-3-yl}pyrimidin-2-yl]"
1000 to 10000 nM,10 to 1000 nM,1000 to 10000 nM,"CCc1cc(-c2c[nH]c3ncc(-c4cnn(CCCN(C)C)c4)cc23)nc(N)n1 [Compound A4, 4-{5-[1-(3-dimethylaminopropyl)-1H-pyrazol-4-yl]-1H-pyrrolo[2,3-b]pyridin-3-yl}-6-ethylpyrimidin-2-ylamine]"
10 to 1000 nM,10 to 1000 nM,10 to 1000 nM,"CC(C)n1cc(-c2cnc3[nH]cc(-c4cc(C(C)(O)c5ccccc5)nc(N)n4)c3c2)cn1 (stereo not drawn) [Compound A55, 1-{2-Amino-6-[5-(1-isopropyl-1H-pyrazol-4-yl)-1H-pyrrolo[2,3-b]pyridin-3-yl]-pyrimidin-4-yl}-1-phenylethanol]"
–,1000 to 10000 nM,10000 to 20000 nM,"CC(C)n1cc(-c2cnc3[nH]cc(-c4cc(C(O)c5ccccc5)nc(N)n4)c3c2)cn1 (stereo not drawn) [Compound A115, {2-Amino-6-[5-(1-isopropyl-1H-pyrazol-4-yl)-1H-pyrrolo[2,3-b]pyridin-3-yl]-pyrimidin-4-yl}phenylmethanol]"
–,10 to 1000 nM,1000 to 10000 nM,"CCc1cc(-c2c[nH]c3ncc(-c4cnn(C(C)C(=O)Nc5ccc6[nH]ccc6c5)c4)cc23)nc(N)n1 (stereo not drawn) [Compound A121, 2-{4-[3-(2-Amino-6-ethylpyrimidin-4-yl)-1H-pyrrolo[2,3-b]pyridin-5-yl]pyrazol-1-yl}-N-(1H-indol-5-yl)propionamide]"
10 to 1000 nM,10 to 1000 nM,10 to 1000 nM,"CC(C)n1cc(-c2cnc3[nH]cc(-c4cc([C@](C)(O)c5ccccc5)nc(N)n4)c3c2)cn1 [Compound A123, (R)-1-{2-Amino-6-[5-(1-isopropyl-1H-pyrazol-4-yl)-1H-pyrrolo[2,3-b]pyridin-3-yl]pyrimidin-4-yl}-1-phenylethanol]"
